Patent publication US20110086759A1, “CHEMICAL COMPOUNDS” (SYNGENTA CROP PROTECTION, INC., priority 2007, published 2011)

Experiments:
Assay type in all cases: in vivo
[1] = test system: Ipomea hederaceae (IPOHE); assay: Pre-emergence biological efficacy, glasshouse pot test; conditions: Ipomoea hederacea, 312 h; pre-emergence, 1,000 g/ha, evaluated after 13 days (100=total damage; 0=no damage); read-out: Percentage damage IPOHE
How it was run: (§1)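 One day after seeds were sown in pots, compound was sprayed at 1000 or 250 g/ha. Plants were kept at 24/16 °C with 14 h light and 65% humidity and watered twice daily; damage was graded at day 13 (0 none, 100 total).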

[2] = test system: Echinochloa crus-galli (ECHCG); assay: as above; conditions: 312 h, pre-emergence, 1,000 g/ha, evaluated after 13 days (100=total damage; 0=no damage), read-out: Percentage damage ECHCG
How it was run: as §1

[3] = test system: Amaranthus retoflexus (AMARE); assay: as above; conditions: Amaranthus retroflexus, 312 h; pre-emergence, 1,000 g/ha, evaluated after 13 days (100=total damage; 0=no damage); read-out: Percentage damage AMARE
How it was run: as §1

Setaria faberi (SETFA) [4] = assay: as above; conditions: 312 h, pre-emergence, 1,000 g/ha, evaluated after 13 days (100=total damage; 0=no damage), read-out: Percentage damage SETFA
How it was run: as §1

Solanum nigrum (SOLNI) [5] = assay: as above; conditions: 312 h, pre-emergence, 1,000 g/ha, evaluated after 13 days (100=total damage; 0=no damage), read-out: Percentage damage SOLNI
How it was run: as §1

[6] = test system: Alopecurus myosuroides (ALOMY); assay: as above; conditions: 312 h, pre-emergence, 1,000 g/ha, evaluated after 13 days (100=total damage; 0=no damage), read-out: Percentage damage ALOMY
How it was run: as §1

[7] = test system: Ipomea hederaceae (IPOHE); assay: Post-emergence biological efficacy, glasshouse pot test; conditions: Ipomoea hederacea, 312 h; post-emergence, 1,000 g/ha, evaluated after 13 days (100=total damage; 0=no damage); read-out: Percentage damage caused to weed species, IPOHE
How it was run: (§2)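 Plants were sown in standard soil and grown 8 days in a glasshouse (24/16° C. day/night, 14 hours light, 65% humidity), then sprayed post-emergence at 1000 or 250 g/ha from acetone/water (50:50) with 0.5% Tween 20. Damage was scored visually after 13 days (0 = none, 100 = total).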

[8] = test system: Echinochloa crus-galli (ECHCG); assay: as above; conditions: 312 h, post-emergence, 1,000 g/ha, evaluated after 13 days (100=total damage; 0=no damage), read-out: Percentage damage caused to weed species, ECHCG
How it was run: as §2

[9] = test system: Amaranthus retoflexus (AMARE); assay: as above; conditions: Amaranthus retroflexus, 312 h; post-emergence, 1,000 g/ha, evaluated after 13 days (100=total damage; 0=no damage); read-out: Percentage damage caused to weed species, AMARE
How it was run: as §2

Setaria faberi (SETFA) [10] = assay: as above; conditions: 312 h, post-emergence, 1,000 g/ha, evaluated after 13 days (100=total damage; 0=no damage), read-out: Percentage damage caused to weed species, SETFA
How it was run: as §2

Solanum nigrum (SOLNI) [11] = assay: as above; conditions: 312 h, post-emergence, 1,000 g/ha, evaluated after 13 days (100=total damage; 0=no damage), read-out: Percentage damage caused to weed species, SOLNI
How it was run: as §2

[12] = test system: Alopecurus myosuroides (ALOMY); assay: as above; conditions: 312 h, post-emergence, 1,000 g/ha, evaluated after 13 days (100=total damage; 0=no damage), read-out: Percentage damage caused to weed species, ALOMY
How it was run: as §2

| Structure (SMILES) | pest or weed control at 1000 g/ha [1] | pest or weed control at 1000 g/ha [2] | pest or weed control at 1000 g/ha [3] | pest or weed control at 1000 g/ha (Setaria faberi (SETFA) [4]) | pest or weed control at 1000 g/ha (Solanum nigrum (SOLNI) [5]) | pest or weed control at 1000 g/ha [6] | pest or weed control at 1000 g/ha [7] | pest or weed control at 1000 g/ha [8] | pest or weed control at 1000 g/ha [9] | pest or weed control at 1000 g/ha (Setaria faberi (SETFA) [10]) | pest or weed control at 1000 g/ha (Solanum nigrum (SOLNI) [11]) | pest or weed control at 1000 g/ha [12] |
| --- | --- | --- | --- | --- | --- | --- | --- | --- | --- | --- | --- | --- |
| COC(=O)c1nc(C2CC2)nc(NC2CCCC2O)c1Cl (stereo not drawn) [Compound 4-34, 5-Chloro-2-cyclopropyl-4-(2-hydroxycyclopentylamino)-6-methoxycarbonyl-pyrimidine] | 90% | 20% | 100% | 50% | 80% | 30% | 60% | 60% | 100% | 60% | 80% | 20% |
| COC(=O)c1nc(C2CC2)nc(NC2CCCCC2)c1Cl [Compound 4-35, 5-Chloro-4-cyclohexylamino-2-cyclopropyl-6-methoxycarbonyl-pyrimidine] | 0% | 0% | 0% | 0% | 0% | 0% | 60% | 0% | 30% | 20% | 40% | 30% |
| COC(=O)c1nc(C2CC2)nc(Nc2ccccc2)c1Cl [Compound 4-39, 5-Chloro-2-cyclopropyl-6-methoxycarbonyl-4-phenylamino-pyrimidine] | 80% | 20% | 60% | 0% | 50% | 0% | 70% | 70% | 100% | 60% | 80% | 50% |
| COC(=O)c1nc(C2CC2)nc(Nc2ccc(Cl)c(Cl)c2)c1Cl [Compound 4-42, 5-Chloro-2-cyclopropyl-4-(3,4-dichlorophenyl-amino)-6-methoxycarbonyl-pyrimidine] | 0% | 20% | 30% | 10% | 0% | 10% | 60% | 10% | 50% | 0% | 50% | 10% |
| COC(=O)c1nc(C2CC2)nc(NCC2CC2)c1Cl [Compound 4-43, 5-Chloro-2-cyclopropyl-4-cyclopropylmethyl-amino-6-methoxycarbonyl-pyrimidine] | 80% | 70% | 90% | 70% | 90% | 70% | 100% | 70% | 100% | 100% | 90% | 60% |
| COC(=O)c1nc(C2CC2)nc(NCC2CCCCC2)c1Cl [Compound 4-49, 5-Chloro-4-cyclohexylmethyl-amino-2-cyclo-propyl-6-methoxy-carbonylpyrimidine] | 40% | 0% | 10% | 0% | 30% | 0% | 70% | 40% | 100% | 40% | 70% | 10% |
| COC(=O)c1nc(C2CC2)nc(NCC2(O)CCCCC2)c1Cl [Compound 4-50, 5-Chloro-2-cyclopropyl-4-[(1-hydroxycyclohex-1-yl)methylamino]-6-methoxycarbonyl-pyrimidine] | 100% | 10% | 100% | 10% | 100% | 10% | 70% | 10% | 100% | 50% | 80% | 10% |
| COC(=O)c1nc(C2CC2)nc(NCC2CCC(C#N)CC2)c1Cl (stereo not drawn) [Compound 4-51, 5-Chloro-4-[(4-cyanocyclohexyl)methylamino]-2-cyclopropyl-6-methoxycarbonyl-pyrimidine] | 50% | 0% | 30% | 0% | 10% | 0% | 60% | 20% | 50% | 50% | 50% | 10% |
| COC(=O)c1nc(C2CC2)nc(NCC2CCCCCCC2)c1Cl [Compound 4-52, 5-Chloro-4-cyclooctylmethyl-amino-2-cyclo-propyl-6-methoxy-carbonylpyrimidine] | 0% | 0% | 40% | 0% | 30% | 0% | 50% | 20% | 30% | 20% | 60% | 0% |
| COC(=O)c1nc(C2CC2)nc(NCC2CCCO2)c1Cl (stereo not drawn) [Compound 4-53, 5-Chloro-2-cyclopropyl-6-methoxy carbonyl-4-(tetrahydrofuran-2-ylmethylamino)-pyrimidine] | 60% | 0% | 60% | 0% | 40% | 10% | 100% | 30% | 100% | 40% | 90% | 20% |
| COC(=O)c1nc(C2CC2)nc(NCC2(OC)C=CC(OC)O2)c1Cl (stereo not drawn) [Compound 4-55, 5-Chloro-2-cyclopropyl-4-[(2,5-dihydro-2,5-dimethoxy-furan-2-yl)methylamino]-6-methoxycarbonyl-pyrimidine] | 60% | 0% | 100% | 0% | 10% | 0% | 50% | 0% | 100% | 30% | 80% | 10% |
